Measurements from patent US5310749A, “Antiprotozoal composition containing a 2-nitroimidazole derivative and method thereof” (Pola Chemical Industries Inc., priority 1991, dated 1994).

What was measured:
[1] = system: Trypanosoma cruzi; experiment: Anti-protozoan action 1 (in vitro), T. cruzi-infected A204 cells; assay type: cell-based; set-up: key: +++: same number of protozoa alive as control; ++: slightly less number alive than control; +: less number alive than control; ±: only a few alive; -: all dead; details: A204 cells infected with T. cruzi, 37° C., 24 hours
Method: A204 cells (derived from a […]), which had been infected in advance with Trypanosoma cruzi and maintained by subculture at 37° C., were cultured in a 24-well plate for tissue culture. The protozoa in the number of about 10^5 were confirmed to be present. After the cells were treated with 50 μmol, 100 μmol and 500 μmol of compounds 1) to 3), they were cultured at 37° C. for 24 hours. Life and death of the protozoa was observed under microscope and scored. The medium used was Dulbecco Modified Eagle Medium manufactured by Dainihon-Seiyaku K. K. added with 10% bovine serum. Control was free of any of compounds 1 to 3).

[2] = system: Trypanosoma cruzi; experiment: Anti-protozoan action 2 (in vitro), T. cruzi culture in GIT medium; assay type: cell-based; set-up: key: +++: same number of protozoa alive as control; ++: slightly less number alive than control; +: less number alive than control; ±: only a few alive; -: all dead; details: GIT medium (serum-free), 27° C., 120 hours
Method: Trypanosoma cruzi was cultured at 27° C. in a GIT medium (serum-free medium) manufactured by Nippon Seiyaku K. K. which was modified to contain […] of hemine. 50 μmol, 100 μmol, 250 μmol and 500 μmol of each of compounds 1) to 3) were added thereto. 120 hours later, life or death of the protozoa was observed under microscope and scored according to the criteria in Example 1. Control was free of any of compounds 1) to 3).

[3] = system: Trypanosoma cruzi (Tulahuen strain); experiment: Anti-protozoan action (in vivo), survival of infected ICR mice (Example 3); set-up: species or system Trypanosoma cruzi (Tulahuen strain) in male ICR mice; details: 200 mg/kg on days 5-9; 400,000 T. cruzi i.p.; all of 3 mice; control 14-15 days
Method: Trypanosoma cruzi (Tulahuen strain) in the number of 400,000 was intraperitoneally administered to a group of 4 week old male ICR mice. At each of fifth, sixth, seventh, eighth and ninth day of the administration,200 mg/kg of compound 1) was given to the mice. Control group was given saline solution instead of compound 1). The anti-protozoan effect of compound 1) was determined based on the days of survival of the mice.

[4] = system: Trypanosoma cruzi (Tulahuen strain); experiment: Anti-protozoan action (in vivo), survival of infected C3H/Hecrj mice (Example 4); set-up: species or system Trypanosoma cruzi (Tulahuen strain) in male C3H/Hecrj mice; details: 200 mg/kg on days 4-8; 200,000 T. cruzi i.p.; 4 mice; control 12 days
Method: Trypanosoma cruzi (Tulahuen strain) in the number of 200,000 was intraperitoneally administered to a group of 5 week old male C3H/Hecrj mice. At each of fourth, fifth, sixth, seventh and eighth day of the administration, 200 mg/kg of compound 1) was given to the mice. Control group was given saline solution instead of compound 1). The anti-protozoaneffect of compound 1) was determined based on the days of survival of the mice.

[5] = system: Trypanosoma cruzi (Tulahuen Strain); experiment: Deaths and presence of protozoa in infected ICR mice, compound 1) with or without anionic copolymer (Example 5); assay type: in vivo, Trypanosoma cruzi (Tulahuen Strain) in ICR male mice
Method: Five groups (Groups 1 to 5) of four week old ICR male mice, each group consisting of 3 mice, were provided. Group 2 and Group 5 mice were given 4.4 mg of acrylic acid-diisobutylvinyl ether copolymer (monomer ratio=1:1, average molecular weight=1.29×10^5) as dissolved in a 0.2 ml saline. On the second day, all animals were intraperitoneally given Trypanosoma cruzi (Tulahuen Strain) in the number of 40,000 for each. On the fifth, sixth, seventh, eighth and ninth day of the administration of the Tripanosoma, Group 1 and Group 2 mice were given saline, and Group 3 and Group 5 mice were given compound 1) (200 mg/kg) as dissolved in saline. Group 4 mice were intraperitoneally given 4.4 mg of acrylic acid-diisobutyl vinyl ether copolymer (monomer ratio=1:1, average molecular weight=1.29×10^5) and compound 1) (200 mg/kg) on the fifth day of the administration of the Trypanosoma, and on the sixth, seventh, eighth and ninth day of the administration, compound 1) (200 mg/kg) was intraperitoneally administered. Observation was continued until 60 th day of administration of Trypanosoma. The mice which were alive on the 60th day were killed and dissected to check the presence or absence of the protozoa in blood, the heart and in the liver under microscope.

[6] = Acute toxicity; details: mouse, in vivo, ip
From the text: ICR mice were intraperitoneally administered with compound 1) for the acute toxicity test. Observation was continued for 14 days after the administration.

[7] = ICR mice, intraperitoneal, observation 14 days

Structure (SMILES): O=[N+]([O-])c1nccn1COCC=CCO [Compound 1)]
- Life and death of the protozoa, score ([1]; 50 μmol): ±
- Life and death of the protozoa, score ([1]; 100 μmol): -
- Life and death of the protozoa, score ([1]; 500 μmol): -
- Life or death of the protozoa, score ([2]; 50 μmol): ++
- Life or death of the protozoa, score ([2]; 100 μmol): ++
- Life or death of the protozoa, score ([2]; 250 μmol): +
- Life or death of the protozoa, score ([2]; 500 μmol): -
- days of survival of the mice [3]: more than 50 days
- days of survival of the mice [4]: more than 20 days
- Number of Dead Samples ([5]; Group 3: compound 1) 200 mg/kg on days 5-9): 0
- death in the groups given compound 1) ([5]; Group Nos. 3, 4 and 5): no death
- LD50 at 336 h [6]: 830 mg/kg

Structure (SMILES): O=[N+]([O-])c1nccn1COC(CO)CO [Compound 2)]
- Life and death of the protozoa, score ([1]; 50 μmol): ++
- Life and death of the protozoa, score ([1]; 100 μmol): ++
- Life and death of the protozoa, score ([1]; 500 μmol): -
- Life or death of the protozoa, score ([2]; 50 μmol): +++
- Life or death of the protozoa, score ([2]; 100 μmol): +++
- Life or death of the protozoa, score ([2]; 250 μmol): +++
- Life or death of the protozoa, score ([2]; 500 μmol): +++
- LD50 at 336 h [6, 7]: 4300 mg/kg

Structure (SMILES): O=[N+]([O-])c1nccn1[C@H]1O[C@H](CO)[C@@H](O)[C@H]1O [Compound 3)]
- Life and death of the protozoa, score ([1]; 50 μmol): ++
- Life and death of the protozoa, score ([1]; 100 μmol): ++
- Life and death of the protozoa, score ([1]; 500 μmol): +
- Life or death of the protozoa, score ([2]; 50 μmol): +++
- Life or death of the protozoa, score ([2]; 100 μmol): +++
- Life or death of the protozoa, score ([2]; 250 μmol): +++
- Life or death of the protozoa, score ([2]; 500 μmol): +
- LD50 at 336 h [6, 7]: > 5000 mg/kg
